Consider two molecules from patent US20130178479A1, “PHARMACEUTICAL COMBINATIONS” (NOVARTIS AG, priority 2010, published 2013).

Molecules are shown by their SMILES. Like-named read-outs stand apart in the source and are kept apart here.

In test [1] the test system is KMS-11 human Multiple Myeloma cancer cells. The test is described as follows: Cell proliferation assay (CellTiter-Glo) in KMS-11. The note with it: for IC50: Homo sapiens. The test is classed as cell-based. Here is the method: (§1) Celt Proliferation Assay: Cell viability was determined by measuring cellular ATP content using the CellTiter-Glo® Luminescent Cell Viability Assay (Promega #G7573) according to manufacturer's protocol. Briefly, 1500-50000 cells were plated on either 384 or 96 well plates in 30 μl (384 well) or 100 μl (96 well) growth media, cells were: allowed to attach overnight and followed by 72 hrs of incubation with various concentration of drugs or drug combinations (10 μl per well in 384 well plates), at the end of the drug treatment, 30 μl of the CellTiter-Glo regent were added to each well (384 well plates) to lyse the cell, and luminescence signals were recorded on a Envision plate reader.
(§2) Method for calculating the effect of the Combination: To evaluate the everolimus and Compound A combination effect in a non-bias way and to identify synergistic effect at all possible concentrations, the combination studies were conducted with a “dose matrix”, where a combination is tested in all possible permutations of serially-diluted everolimus and Compound A single agent doses, in all combination assays, compounds were applied simultaneously. Single agent dose responding curves, IC50, IC90, and the Synergy are all analyzed using Chalice software (CombinatoRx, Cambridge, Mass.). Synergy was calculated by comparing a combination's response to those of its single agents, against the drug-with-itself dose-additive reference model. Deviations from dose additivity can be assessed visually on an Isobologram or numerically With a Combination Index. Excess inhibition compare to additivity can also be plotted as a full dose-matrix chart to capture where the synergies occur. To quantify the overall strength of combination effects, a volume score VHSA=ΣXYInfXInfY(Idata−IHSA) is also calculated between the data and the highest-single-agent surface, normalized for single agent dilution factors fX,fY[ref].
The cells were plated, at 50000 cells/well in 96 well plates in triplicates, and treated with compound for 72 hrs prior to the measurement (FIG. 11). The following “dose matrix”, everolimus; 8 dose, 3×, 500 nM to 0.23 nM, Compound A: 8 dose, 2×, 1 μM to 8 nM, was applied.
In general terms: ATP-based viability assays read luminescence as a measure of living cells.

Test [2] deals with MDA-MB-361 Human Breast Cancer cells. The test is described as follows: Cell proliferation assay (CellTiter-Glo) in MDA-MB-361. The class given is cell-based. The note with it: for IC50: Homo sapiens. Here is the method: as §1
The cells were plated at 2000 cells/well in […] in triplicates, and treated with compound for 72 hrs prior to the measurement. The following “dose matrix”, everolimus: 8 dose, 2×, 2000 nM to 15 nM, Compound A: 8 dose, 2×, 2 μM to 15 nM, was applied.

The subject of test [3] is six cell lines from various tissue lineages. The test is described as follows: Antiproliferative effect of combinations, summary over six cell lines. The class given is cell-based, human. The note with it: depends on the cell types. Here is the method:
as §1
Method for calculating the effect of the Combination: To evaluate the everolimus and Compound A combination effect in a non-bias way and to identify synergistic effect at all possible concentrations, the combination studies were conducted with a “dose matrix”, where a combination is tested in all possible permutations of serially-diluted everolimus and Compound A single agent doses, in all combination assays, compounds were applied simultaneously. Single agent dose responding curves, IC50, IC90, and the Synergy are all analyzed using Chalice software (CombinatoRx, Cambridge, Mass.). […] Deviations from dose additivity can be assessed visually on an Isobologram or numerically With a Combination Index. […]

For test [4], the system named is p4EBP1 T37/46 in MFE296 cells. The test is described as follows: High content p4EBP1 T37/46 assay in MFE296 cells. The test is classed as cell-based, human. The note with it: for IC50 / IC90: Homo sapiens, MFE-296. Here is the method:
(§3) Automated imaging assay (or High-Content assay) for pS6 S240/244 and p4EBP1 T37/46: 2-4×10^3 cells were seeded in clear-bottom 384-well black plates (Greiner #781091) in 30 μl per well growth media 24 hours prior to treatment Compounds were added to the cell in 10 μl growth media and incubated overnight; the cells were then fixed by addition of 10 μl per well Mirsky's fixative (National Diagnostics #HS-102) for 1 hour, washed seven times with 30 μl/well TBS buffer using a BioTek plate washer, and blocked with 100 μl/well blocking buffer (TBS with 0.1% BSA and 0.1% Triton X-100). The anti-Ser 240/244 -RPS6 antibody (CST #4838, 1:150 dilution) or anti-Thr 37/46-p4EBP1 antibody (CST #2855, 1:150 dilution) were then incubated overnight at 4° C. After seven times wash with TBS, the cells were stained with Cy5-conjugated goat-anti-rabbit IgG 2nd antibody (Millipore #AP187S, 1:150 dilution) and DNA staining dye Neediest 33342 for 1.5 hours. The phospho-S6 and phospho-4EBP1 signals were-imaged using InCell 1000 Analyzer (BN_staining—10×protocol) at 10× magnification, 3 fields per well after seven times wash with TBS. For Hoechst 33342 signal; the excitation and emission wave lengths are 360 nm (D360—40× filter) and […] (HQ460—40M filter), respectively, and for Cy5, 620 nm (HQ620—60× filter) for both the excitation and emission wave lengths. Analysis of the images was done using the InCell Investigator software.
as §2
p4EBP1 signal. […] The cells were plated at 4000 cells/well in 384 well plates in duplicates, and treated with compound for 18 hrs before the measurement (FIG. 7).

In test [5] the test system is p4EBP1 T37/46 in NCI-H23 cells. The test is described as follows: High content p4EBP1 T37/46 assay in NCI-H23 cells. The test is classed as cell-based, human. Here is the method: as §3, §2
The cells were plated at 3000 cells per well in 384 well plates in quadruplicates, and treated with compound for 18 hrs before the measurement (FIGS. 1-2).

Test [6] concerns SK-BR3 Human Breast Cancer cells. The test is described as follows: Cell proliferation assay (CellTiter-Glo) in SK-BR3. The note with it: for IC50: Homo sapiens, SK-BR-3. The test is classed as cell-based. Here is the method:
as §1
The cells were plated at 2000 cells/well in 96 well plates in triplicates, and treated with compound for 72 hrs prior to the measurement. The following dose matrix, everolimus: 8 dose, 2×, […] to 15 nM, Compound A: 8 dose, 2×, 2 μM to 15 nM, was applied.

A further test concerns PI3K/mTOR. The note with it: cited from earlier work.
The subject of test [7] is GA-10 human Non-Hodgkin's Lymphoma cancer cells. The test is described as follows: Cell proliferation assay (CellTiter-Glo) in GA-10. The class given is cell-based. Here is the method:
as §1, §2
The cells were plated at 50000 cells/well in 96 well plates in triplicate, and treated with compound for 72 hrs prior to the measurement (FIG. 10). The following “dose matrix”, everolimus: 8 dose, 3×, 500 nM to 0.23 nM, Compound A: 8 dose, 2×, 1 μM to 8 nM, was applied.

The mark [8] stands for this setting: single agent, MDA-MB-361, 72 hrs.
Where [9] appears, read: single agent, SK-BR3, 72 hrs, read-out: IC50, inhibition of cell growth.

By IC50 is commonly meant the midpoint of a concentration-inhibition curve. One may read the IC90 as the concentration at which the effect reaches the 90% level. For the molecule `Cn1c(=O)n(-c2ccc(C(C)(C)C#N)cc2)c2c3cc(-c4cnc5ccccc5c4)ccc3ncc21` [Compound A, 2-methyl-2-[4-(3-methyl-2-oxo-8-quinolin-3-yl-2,3-dihydro-imidazo[4,5-c]quinolin-1-yl)-phenyl]-propionitrile], the “full effective dose amount of Compound A” value was over 125 nM in test [1] (Compound A alone, KMS-11); 16 to 82 nM in test [1] (with trace amount (sub-nanomolar) of everolimus, KMS-11); over 250 nM in test [7] (Compound A alone, GA-10); 16 to 62 nM in test [7] (with trace amount (sub-nanomolar) of everolimus, GA-10). Besides, the IC50 in test [1] (concomitant everolimus, KMS-11, read-out: IC50 for Compound A, cell growth) was 16 nM; in test [1] (single agent, KMS-11, 72 hrs, read-out: IC50, inhibition of cell growth), about 80 nM; in test [2] (concomitant everolimus, MDA-MB-361, read-out: IC50 for Compound A, cell growth) it was under 15 nM; in test [2] (single agent, MDA-MB-361, 72 hrs, read-out: IC50, inhibition of cell growth), about 60 nM; in test [4] (in presence of trace amount of everolimus, MFE296, read-out: IC50 for Compound A, p4EBP1 signal) it was 0.24 nM; in test [4] (single agent, MFE296, 18 hrs, read-out: IC50, reduction of p4EBP1 signal), 16 nM. The IC50 was 10 nM in test [5] (Homo sapiens, single agent, NCI-H23, 18 hrs, read-out: IC50, reduction of p4EBP1 signal); under 15 nM in test [6] (concomitant everolimus, SK-BR3, read-out: IC50 for Compound A, cell growth); about 31 nM in test [6] (setting [9]); about 25 nM in test [7] (Homo sapiens, single agent, GA-10, 72 hrs, read-out: IC50, inhibition of cell growth). The Amax in test [1] (single agent, KMS-11, 72 hrs) was 0.7; in test [2] (setting [8]) it was 0.81; in test [6] (single agent, SK-BR3, 72 hrs), 0.67; in test [7] (single agent, GA-10, 72 hrs), 1. The “full effective dose range of Compound A” value is listed as 120 nM in test [2] (Compound A alone, MDA-MB-361); under 15 nM in test [2] (with low dose everolimus, MDA-MB-361); 120 nM in test [6] (Compound A alone, SK-BR3); under 15 nM in test [6] (with low dose everolimus, SK-BR3). For the same molecule, the “enhancement of the potency of Compound A by everolimus” value in test [3] is on record as 5-100 fold. The IC90 in test [4] (in presence of trace amount of everolimus, MFE296, read-out: IC90 for Compound A, p4EBP1 signal) is 4 nM; in test [4] (single agent, MFE296, 18 hrs, read-out: IC90, reduction of p4EBP1 signal), about 100 nM; in test [5] (Homo sapiens, in combination with 5 nM everolimus, NCI-H23, read-out: IC90 for Compound A, p4EBP1 signal) it was 5 nM; in test [5] (Homo sapiens, single agent, NCI-H23, 18 hrs, read-out: IC90, reduction of p4EBP1 signal) it was 80 nM; in test [7] (Homo sapiens, GA-10, 72 h, single agent, GA-10, 72 hrs, read-out: IC90, inhibition of cell growth), 250 nM; in test [7] (Homo sapiens, GA-10, concomitant everolimus, GA-10, read-out: IC90 for Compound A, cell growth), 16 nM. Further, the concentration for an effect of 90% (IC90) in test [7] (single agent, GA-10, 72 hrs, read-out: IC90, inhibition of cell growth) was about 300 nM. Also, the “concentration at which p4EBP1 signal reduction plateaued (complete inhibition)” value in test [5] (single agent, NCI-H23) is listed as at least 167 nM. In addition, the “reduction of IC90 for Compound A, p4EBP1 signal” value in test [5] (with 5 nM everolimus vs Compound A alone) is on record as 16 fold. For the same molecule, the “concentration at which mTOR inhibition predominates” value with PI3K/mTOR (low concentration) is given as “less than 100 nmol/L”. For the same molecule, the “concentration at which dual PI3K/mTOR inhibition is observed” value with PI3K/mTOR (relatively higher concentrations) is recorded as “approximately 500 nmol/L”.

As for `CO[C@H]1C[C@@H]2CC[C@@H](C)[C@@](O)(O2)C(=O)C(=O)N2CCCC[C@H]2C(=O)O[C@H]([C@H](C)C[C@@H]2CC[C@@H](OCCO)[C@H](OC)C2)CC(=O)[C@H](C)/C=C(\C)[C@@H](O)[C@@H](OC)C(=O)[C@H](C)C[C@H](C)/C=C/C=C/C=C/1C` [everolimus, 40-O-(2-hydroxyethyl)-rapamycin, reference compound], the Amax is on record as 0.28 in test [1] (single agent, KMS-11, 72 hrs); under 0.50 in test [2] (setting [8]); 0.50 in test [6] (single agent, SK-BR3, 72 hrs); 0.3 in test [7] (single agent, GA-10, 72 hrs). Also, the p4EBP1 signal reduction result in test [4] (single agent, all concentrations tested 0.5 pM-500 nM, MFE296) was “approximately 20%”; in test [5] (single agent, all concentrations tested 5 nM-1.2 μM, NCI-H23), “approximately 30%”. The half-maximal inhibitory concentration (IC50) in test [6] (setting [9]) is under 15 nM.
